From patent US20040062764A1, “Chemoprotectant for gastric toxicity” (priority 2003, published 2004)
≈ marks a conversion by molar mass, not a printed value. Entries after “also recorded” stand apart in the source; their conditions may differ. Like-named read-outs stand apart in the source and are kept apart here.

Assays:
[1] = test system: normal human gastric cells (NHGC); details: for percent viable gastric cells, BR96-DOX plus chemoprotectant (FIGS. 3 and 4): with or without BSO pretreatment
Procedure: Cytotoxicity was assessed in cultured normal human gastric cells (NHGC), using the WST colorometric assay for live cells. Cells were treated with approximately LD90 dose of BR96-DOX, immediately followed by NAC at the indicated concentrations.
(§1) A NHGC cell line and a human gastric carcinoma cell line (AGS) were obtained.

[2] = test system: human gastric carcinoma cell line (AGS); experiment: Cytotoxicity dose response in gastric carcinoma cells; details: for cell survival, comparison of combinations (FIGS. 5 and 6): NAC+BSO+BR96-DOX versus BR96-DOX+BSO without NAC; for EC50: Homo sapiens, AGS
Procedure: as §1
The dose response curves for BR96-DOX and doxorubicin with or without the addition of buthionine sulfoximine (BSO) at a concentration of 100 μM were assessed.

[3] = test system: low-expressor and high-expressor subclones of the LX-1 SCLC cell line; experiment: BSO cytoenhancement in LX-1 SCLC subclones; assay type: cell-based, human; details: low- and high-expressor LX-1 subclones
[4] = test system: GSH; experiment: Blood and tissue GSH levels, colorometric kit; assay type: in vivo, nude rats; details: BSO 10 g/m^2 i.p. b.i.d. x 3 days; even in brain and intracerebral tumor
Procedure: (§2) NAC biodistribution was determined with radiolabelled tracer (n=12). Blood and tissue GSH levels were measured with a colorometric kit 9 (n=19). For bone marrow toxicity studies, rats were treated with or without BSO (10 g/m^2 i.p. b.i.d.×3 days), followed by chemotherapy consisting of intra-carotid carboplatin (200 mg/m^2), melphalan (10 mg/m^2) and etoposide phosphate (100 mg/m^2) (n=61). The dose of NAC was 1200 mg/m^2 and STS was 8 gm/m^2. White blood cell and platelet counts were obtained prior to, at 6 days and 9-10 days after chemotherapy.

[5] = test system: bone marrow; experiment: Bone marrow toxicity study after intra-carotid combination chemotherapy
Procedure: as §2

[6] = test system: B.5 LX-1 SCLC cells; experiment: WST colorometric live-cell assay, NAC chemoprotection against alkylating chemotherapy; assay type: cell-based; details: Homo sapiens; approx. LD90 chemotherapy (melphalan 20 μM, carboplatin 200 μM, cisplatin 20 μM); NAC added immediately after; all three drugs; read-out: NAC concentration for half-maximal protection against cell death
Procedure: Cytotoxicity was assessed in cultured B.5 LX-1 SCLC cells, using the WST colorometric assay for live cells. Cells were treated with approximately LD90 dose of chemotherapy (melphalan=20 μM, carboplatin=200 μM, cisplatin=20 μM). Immediately following chemotherapy, NAC chemoprotectant was added at the indicated concentration. NAC protected against cell death by all three chemotherapeutic drugs, with half-maximal protection found between 0.1 mg/ml NAC and 0.3 mg/ml NAC.

[7] = NAC biodistribution with radiolabelled tracer; assay type: in vivo, rat
Procedure: as §2

[8] = after a bolus injection; cited from earlier work

Q: Which “effect of BSO on cytotoxicity of BR96-DOX or doxorubicin in normal gastric cells” value ([1]; NHGC) does the source give for `CCCCS(=N)(=O)CCC(N)C(=O)O` (stereo not shown) [BSO, buthionine sulfoximine] here?
A: did not increase toxicity; also recorded: did not enhance the cytotoxicity

Q: What about the “effect of BSO on cytotoxicity in carcinoma cells” value [2] of the same compound?
A: enhanced cytotoxicity

Q: And the “cell survival, comparison of combinations (FIGS. 5 and 6)” value [2]?
A: least survival

Q: What about the “effect of BSO on cytotoxicity of BR96-DOX or doxorubicin” value [3] of the same compound?
A: did not enhance the cytotoxicity

Q: And the “reduction of blood and tissue GSH levels” value [4]?
A: 50-65%

Q: And the “bone marrow toxicity of combination chemotherapy” value ([5]; BSO pretreatment, intra-carotid carboplatin, melphalan, etoposide phosphate)?
A: enhanced the bone marrow toxicity

Q: Which results are given for `CCOC(=O)CNC(=O)[C@H](CS)NC(=O)CC[C@H](N)C(=O)O` [GSH ethyl ester]?
A: reduction of BR96-DOX cell kill, other chemoprotective agents ([1]; NHGC): 15-20%; percent viable gastric cells, BR96-DOX plus chemoprotectant (FIGS. 3 and 4) [1]: second highest amount of viable gastric cells

Q: Which EC50 [6] does the source give for `CC(=O)N[C@@H](CS)C(=O)O` [NAC, N-acetylcysteine] here?
A: 100 to 300 µg/mL (≈ 613 to 1840 µM)

Q: What about the “protection against BR96-DOX cytotoxicity in normal gastric cells” value ([1]; NHGC) of the same compound?
A: protected the normal gastric cells; also recorded: at least partially protective; also recorded: protective independent of the presence of BSO

Q: What about the “reduction of BR96-DOX cell kill” value ([1]; NHGC, experiment 1) of the same compound?
A: 25%

Q: And the “reduction of BR96-DOX cell kill” value ([1]; NHGC, experiment 2)?
A: 95%

Q: And the “reduction of BR96-DOX cell kill” value ([1]; NHGC, experiment 3)?
A: 55%

Q: And the “protective NAC concentration relative to that required against alkylating chemotherapeutics” value ([1]; NHGC/BR96-DOX vs B.5 LX-1/alkylators)?
A: 10 fold

Q: What about the “percent viable gastric cells, BR96-DOX plus chemoprotectant (FIGS. 3 and 4)” value [1] of the same compound?
A: increased the percentage of viable gastric cells

Q: What about the “effect on BSO-enhanced BR96-DOX cytotoxicity” value [2] of the same compound?
A: did reverse the enhanced cytotoxicity

Q: What about the “effect on response to BR96-DOX” value ([2]; AGS cells not treated with BSO) of the same compound?
A: did not alter the response

Q: And the “cell survival, comparison of combinations (FIGS. 5 and 6)” value [2]?
A: greatest amount of cells survived

Q: And the “systemic delivery of radiolabelled NAC” value ([7]; aortic infusion)?
A: increasing systemic delivery

Q: And the “brain delivery of radiolabelled NAC” value ([7]; aortic infusion (retrograde left external carotid, left internal carotid occluded))?
A: negligible levels

Q: What about the “brain delivery of radiolabelled NAC” value ([7]; intraarterial, right carotid artery) of the same compound?
A: high delivery to the right cerebral hemisphere

Q: And the granulocytes at nadir ([5]; day 6, NAC 1200 mg/m^2 aortic infusion before intra-carotid chemotherapy, no BSO, no NAC: 146±160, p<0.02)?
A: 785±494

Q: What about the platelets at nadir ([5]; day 6, NAC 1200 mg/m^2 aortic infusion before intra-carotid chemotherapy, no BSO, no NAC: 215±126, p<0.02) of the same compound?
A: 470±234

Q: For `O=S([O-])([O-])=S.[Na+].[Na+]` [STS, sodium thiosulfate], which “reduction of BR96-DOX cell kill, other chemoprotective agents” value ([1]; NHGC) is on record?
A: no significant effect

Q: What about the plasma half life [8] of the same compound?
A: about 17 minutes

Q: For `CSCC[C@@H](N)C(=O)O` [d-Methionine, D-methionine], which “reduction of BR96-DOX cell kill, other chemoprotective agents” value ([1]; NHGC) is on record?
A: no significant effect

Q: For `COc1cccc2c1C(=O)c1c(O)c3c(c(O)c1C2=O)C[C@@](O)(C(=O)CO)C[C@@H]3O[C@H]1C[C@H](N)[C@H](O)[C@H](C)O1` [doxorubicin], which EC50 ([2]; read-out: half maximal cytotoxic dose (EC50), AGS cells, absence of BSO) is on record?
A: 0.1 µg/mL (≈ 0.184 µM)

Q: And the EC50 ([2]; read-out: half maximal cytotoxic dose (EC50), AGS cells, pretreatment with BSO 100 μM)?
A: ~0.05 µg/mL (≈ 0.092 µM)
